The record followed here is patent US20090304712A1, “Neuronal Cell Death Inhibitor and Screening Method” (NATIONAL UNIVERSITY CORPORATION NAGOYA UNIVERSITY, priority 2006, published 2009).

Test [1] concerns mouse cerebral cortex primary neurons. The test can be described thus: Neuritic beading degeneration in neurons incubated with activated microglia conditioned medium. Type of test: cell-based. Particulars: for number of neurons with neuritic beading degeneration: 24 h. The protocol:
(§1) Mouse primary microglia were isolated from primary mixed glial cell cultures (obtained from newborn C57BL/6J mice brains) by the ‘shaking off’ method on the 14th culture day or later (Suzumura, A. et al. MHC antigen expression on bulk isolated macrophage-microglia from newborn mouse brain: induction of 1a antigen expression by gamma-interferon. J. Neuroimmunol. 15, 263-278 (1987)).
In addition, mouse cerebral cortex primary neurons were prepared from the cerebral cortices of C57BL/6J mice at embryonic 17th day, and were plated on poly-ethyleneimine (PEI)-coated cover slips. Neurons were used at 10th to 13th culture day (Takeuchi et al. Neuritic beading induced by activated microglia is an early feature of neuronal dysfunction toward neuronal death by inhibition of mitochondrial respiration and axonal transport. J. Biol. Chem. 280, 10444-10454 (2005)).
(§2) Microglia were cultured with the culture medium (approximately 5×10^4 cells/well, Neuron Medium (manufactured by Sumitomo Bakelite Co., LTD.) administered with 1 μg/ml of LPS or 100 ng/ml of cytokines (IL-1β, IL-6, IL-10, IFN-γ, or TNF-α), respectively. Microglia were incubated under 100% humidity and 5% CO2 at 37° C. for 24 hours. Note that as a control, microglia were cultured similarly except that no cytokine was added.
Neurons in a 24-well plate (5×10^4 cells/well) were incubated with 500 μl of conditioned medium of microglia activated as above. […]
(§3) The various neurons obtained as above were cultured for 24 hours, then, neurons in each well were measured for both the number of neurons with neuritic beading degeneration and the number of dead neurons. […] The ratio of neurons with neuritic beading degeneration was calculated as a percentage of total neurons. Note that neurons in duplicate wells were assessed blindly in three independent trials. In addition, the number of dead neurons was assessed by the dye-exclusion method with propidium iodide (PI). […] The ratio of dead neurons was calculated as a percentage of PI-positive cells among total neurons.

The subject of test [2] is experimental autoimmune encephalomyelitis (EAE) model. The test can be described thus: MOG-induced experimental autoimmune encephalomyelitis (EAE) model. The format is in vivo, C57BL/6J mice. The note with it: for EAE onset day (EAE clinical score becomes 1 or greater) / number of severe sick days (EAE clinical score four or greater): p<0.05.
The subject of test [3] is mouse cerebral cortex primary neurons. The test can be described thus: Dead neurons (propidium iodide dye-exclusion) in neurons incubated with activated microglia conditioned medium. Type of test: cell-based. The note with it: 24 h. The method, then:
as §1
In addition, mouse cerebral cortex primary neurons were prepared from the cerebral cortices of C57BL/6J mice at embryonic 17th day, and were plated on poly-ethyleneimine (PEI)-coated cover slips. […]
as §3

The subject of test [4] is activated microglia. The test can be described thus: Glutamate concentration in neuron culture medium (glutamate released from activated microglia), colorimetric assay. The format is cell-based, mouse. The note with it: 24 h; for extracellular glutamate concentration: versus no drug (TNF). The method, then:
as §1, §2
Neurons in a 24-well plate (5×10^4 cells/well) were incubated with 500 μl of conditioned medium of microglia activated as above. Neurons were administered similarly non-activated microglia conditioned medium to serve as a control for the indirect stimulation group. […]
In the present example, the amount of glutamate released from microglia stimulated with various cytokines, intracellular ATP concentration and mitochondrial damage in neurons incubated with conditioned medium were measured. […]
After incubation for 24 hours as above, the concentration of glutamate in the conditioned medium of each neuronal culture well was measured using Glutamate Assay Kit colorimetric assay (manufactured by Yamasa Corporation) according to the protocol thereof, measuring the absorption at 600 nm in a multiplate reader. […]
The various neurons prepared as above were cultured for 24 hours, then, glutamate concentration, the numbers of neurons with neuritic beading degeneration and dead neurons were measured for neurons in each neuronal culture well. Quantification of glutamate concentration was carried out similarly to Example 2, measurements of the numbers of neurons with neuritic beading degeneration and dead neurons were carried out similarly to Example 1. […]

The subject of test [5] is ischemia-induced delayed neuronal cell death model. The test is described as follows: Ischemia-induced delayed neuronal cell death model. The format is in vivo, Mongolian gerbils. The note with it: for delayed neuronal cell death (micrographs of hippocampal CA1, FIG. 15) / number of surviving neurons per 100 μm in the hippocampal CA1 region: 7 days after ischemia; for number of surviving neurons per 100 μm in the hippocampal CA1 region: p<0.001 versus control. The method, then:
In the present example, the effect of gap junction inhibitor and glutaminase inhibitor on neuronal cell death was evaluated using ischemia-induced delayed neuronal cell death model. Note that all protocols were approved by the Animal Experiment Committee of Nagoya University. Note that the animal model in the present example corresponds to a model of ischemic disorder, which is a nervous system disease.
According to reference by Imai et al. (Imai F, Sawada M, Suzuki H, Zlokovic B V, Kojima J, Kuno S, Nagatsu T, Nitatori T, Uchiyama Y, Kanno T., Exogenous microglia enter the brain and migrate into ischemic hippocampal lesions. et al. Neuroscience Letter. 272 (2): 127-130. 1999)□ adult male Mongolian gerbils, 10-12 weeks old and weighing approximately 70 g, were anesthetized with sevoflurane maintaining rectal temperature at 37° C. Global forebrain ischemia was produced transiently by occluding both common carotid arteries for 5 minutes using aneurysm clips.
Administration of the gap junction inhibitor carbenoxolone (CBX) was carried out in the following three groups. That is to say, the doses were 20 mg/kg body weight (CBX1), 2 mg/kg body weight (CBX1/10) and 0.2 mg/kg body weight (CBX1/100). Administration of the glutaminase inhibitor 6-diazo-5-oxo-L norleucine (DON) was carried out in the following three groups. That is to say, the doses were 1.6 mg/kg body weight (DON1), 0.16 mg/kg body weight (DON1/10) and 0.016 mg/kg body weight (DON1/100). CBX or DON was administered intraperitoneally every other day from the day of ischemia. Note that control animals were injected with the equal volume of phosphate-buffered saline (PBS).
Seven days after ischemia, gerbils were anesthetized and transcardically perfused with 4% paraformaldehyde in PBS. The brains were removed, embedded in O.C.T. compound (manufactured by Sakura Finetech) and then frozen in liquid nitrogen. Frozen sections were prepared with a cryostat (8 μm thick), were mounted onto a slide glass and were stained with haematoxylin and eosin. To assess the effect of drug treatment on delayed neuronal death, the number of surviving neurons per 100 μm in the hippocampal CA1 region was counted under a microscope.

The subject of test [6] is connexin-32 (C×32). The test is described as follows: Microglial cell surface expression of connexin-32 by flow cytometry. The format is cell-based, mouse. Particulars: microglia stimulated with 100 ng/ml TNF-α, 24 h. The method, then:
In the present example, an analysis of LPS- or TNF-α-stimulated microglial cell surface expression of connexin-32 (C×32), which is a major constitutive component of gap junction, was carried out with a flow cytometer. The preparation of microglia was carried out similarly to Example 1, and microglia activation was carried out similarly to Example 4. To Detect C×32 anti-mouse C×32 antibody (manufactured by Chemicon) was used.
(A flow cytometer gives signals particle by particle.)

Test [7] deals with mouse cerebral cortex primary neurons. The test can be described thus: Neuronal mitochondrial damage, MTS assay. Type of test: cell-based. Particulars: conditioned medium of microglia treated with 100 ng/ml TNF-α; 24 h. The method, then: (§4) In the present example, the amount of glutamate released from microglia stimulated with various cytokines, intracellular ATP concentration and mitochondrial damage in neurons incubated with conditioned medium were measured. […] The evaluations were carried out by the following methods.
After incubation for 24 hours as above, the extent of neuronal mitochondria damage in each neuronal culture well was measured using CellTiter96 Aqueous One Solution assay (manufactured by Promega) according to the protocol, performing the MTS method, measuring the absorption at 490 nm in a multiplate reader. Note that the assays were carried out in six independent trials.

Test [8] has the same test system. The test is described as follows: Neuronal intracellular ATP concentration, chemiluminescent method. The format is cell-based. Particulars: conditioned medium of microglia treated with 100 ng/ml TNF-α; 24 h. The method, then: as §4
After incubation of the various neurons obtaine for 24 hours as above, intracellular ATP in each neuronal culture well was measured using AposSENSOR Cell Viability Assay Kit (manufactured by Bio Vision) according to the protocol thereof, by the chemiluminescent method. ATP concentration was calculated as a percentage of control.

The mark [9] stands for this setting: 1 mM DON with activated microglia conditioned medium.
Where [10] appears, read: DON1: 1.6 mg/kg i.p. every other day.
The mark [11] stands for this setting: DON 0.016, 0.16, 1.6 mg/kg i.p. every other day.
[12] abbreviates: 100 μM CBX with activated microglia conditioned medium.
The mark [13] stands for this setting: CBX1/10: 2 mg/kg i.p. every other day.
The mark [14] stands for this setting: CBX 0.2, 2, 20 mg/kg i.p. every other day.

Chain of connexin-32 (C×32) (P28230 whole entry): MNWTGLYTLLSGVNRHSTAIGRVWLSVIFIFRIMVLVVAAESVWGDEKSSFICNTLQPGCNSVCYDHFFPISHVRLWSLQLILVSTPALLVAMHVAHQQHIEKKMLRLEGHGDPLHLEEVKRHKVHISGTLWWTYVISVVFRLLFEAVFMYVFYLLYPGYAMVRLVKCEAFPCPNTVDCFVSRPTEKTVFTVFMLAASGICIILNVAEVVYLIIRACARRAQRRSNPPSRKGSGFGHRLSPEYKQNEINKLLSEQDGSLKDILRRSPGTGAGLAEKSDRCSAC

Regarding `[N-]=[N+]=CC(=O)CC[C@H](N)C(=O)O` [DON, 6-diazo-5-oxo-L-norleucine], in test [1] (setting [9]), the “number of neurons with neuritic beading degeneration” value is on record as “inhibitory action”. For the same compound, the “EAE clinical symptoms (clinical score course, FIG. 17)” value in test [2] (DON 0.016, 0.16, 1.6 mg/kg i.p. every other day from day of immunization) was “inhibited”. In test [2] (setting [10]), the “EAE onset day (EAE clinical score becomes 1 or greater)” value is recorded as “significantly delayed” and the “number of severe sick days (EAE clinical score four or greater)” value is on record as “significantly reduced”. For the same compound, the “number of dead neurons” value in test [3] (setting [9]) is listed as “inhibitory action”. Also, the extracellular glutamate concentration result in test [4] (setting [9]) is listed as “reduced to the control level”. Further, the “delayed neuronal cell death (micrographs of hippocampal CA1, FIG. 15)” value in test [5] (DON 0.016, 0.16, 1.6 mg/kg body weight i.p. every other day from day of ischemia) was “clearly inhibited”. In test [5] (setting [11]), the “dose dependence of decrease in neuronal death” value was “dose-dependent manner” and the “number of surviving neurons per 100 μm in the hippocampal CA1 region” value is reported as “significantly protected”.

Turning to `CC1(C)[C@@H](OC(=O)CCC(=O)O)CC[C@]2(C)[C@H]3C(=O)C=C4[C@@H]5C[C@@](C)(C(=O)O)CC[C@]5(C)CC[C@@]4(C)[C@]3(C)CC[C@@H]12` [CBX, carbenoxolone disodium], in test [1] (setting [12]), the “number of neurons with neuritic beading degeneration” value is on record as “inhibitory action”. Moreover, the “EAE clinical symptoms (clinical score course, FIG. 17)” value in test [2] (CBX 0.2, 2, 20 mg/kg i.p. every other day from day of immunization) is on record as “inhibited”. In addition, in test [2] (setting [13]), the peak clinical score result is reported as “significantly decreased”, the “EAE onset day (EAE clinical score becomes 1 or greater)” value is on record as “significantly delayed” and the “number of severe sick days (EAE clinical score four or greater)” value is given as “significantly reduced”. In addition, the “number of dead neurons” value in test [3] (setting [12]) is reported as “inhibitory action”. Moreover, the extracellular glutamate concentration result in test [4] (setting [12]) was “reduced to the control level”. For the same compound, the “delayed neuronal cell death (micrographs of hippocampal CA1, FIG. 15)” value in test [5] (CBX 0.2, 2, 20 mg/kg body weight i.p. every other day from day of ischemia) is recorded as “clearly inhibited”. In test [5] (setting [14]), the “dose dependence of decrease in neuronal death” value was “dose-dependent manner” and the “number of surviving neurons per 100 μm in the hippocampal CA1 region” value was “significantly protected”.

As for TNF-α, the “expression of gap junction (C×32) onto the cell surface of microglia” value in test [6] was “augmented”. Also, the “extent of mitochondrial damage (MTS)” value in test [7] is reported as “significantly mild”. The “neuronal intracellular ATP concentration” value in test [8] is on record as “significantly low”. In addition, the “ratio of neurons with neuritic beading degeneration as a percentage of total neurons” value in test [1] (indirect stimulation: conditioned medium of microglia treated with 100 ng/ml cytokine for 24 h, neurons cultured 24 h) is reported as “approximately 100%”. Also, the “glutamate concentration in neuron culture medium” value in test [4] (conditioned medium of microglia treated with 100 ng/ml TNF-α) is “significantly high concentration”.
